# Patent US20210221791A1, “COMPOUNDS” (UNIVERSITETET I OSLO, priority 2016, published 2021)
# Values joined by “and” are separate entries in the source; they are usually repeats but may differ in a detail not shown here. Identical values can stand only once. “Also recorded” adds a separate entry of the source. Counter-ions that a name gives are not always drawn. Like-named read-outs stand apart in the source and are kept apart here.
# Key:
# K. pneumoniae K66-45 = assay type: cell-based; conditions: inhibitor 25 mg/L
# Description: After plating and grown overnight at 37° C., only single colonies, ignoring any touching the edges of the plate, were counted.
# 10^9 CFU K66-45 (Mueller-Hinton broth, no selection) was plated and grown overnight, 37° C. Only single colonies, ignoring any touching the edges of the plate, were counted.
# [1] = system: C. freundii harboring an MBL; experiment: MIC of meropenem on strains harboring an MBL (Example 198); assay type: cell-based; conditions: C. freundii (NDM)
# [2] = Solution stability measured indirectly by MIC studies; assay type: physicochemical; conditions: stored up to 8 months at 2-8° C.; 25 mg/L inhibitor; P. aeruginosa VIM-2 and K. pneumonia NDM-1
# Excerpt: P. aeruginosa harboring VIM-2 and K. pneumonia bearing NDM-1 was used as two indicator strains.
# [3] = system: P. stuartii harboring an MBL; experiment: MIC of meropenem on strains harboring an MBL (Example 198); assay type: cell-based; conditions: P. stuartii (NDM)
# [4] = system: K. pneumoniae harboring an MBL; experiment: as above; assay type: cell-based; conditions: K. pneumoniae (NDM); each table line a different strain
# [5] = system: resistant gram-negative MBL-based bacteria; experiment: MICx: lowest adjuvant concentration giving carbapenem MIC ≤2 mg/L; assay type: cell-based; conditions: 25 mg/L Example 26; K66-45 and K34-7; meropenem and doripenem
# [6] = system: human serum albumin and α1-acid glycoprotein (AGP); conditions: 500 μM Example 26; HSA:AGP 24:1 up to 140 μM
# Description: Enzymes in the kit are immobilized at a solid phase. […] Buffer without inhibitor was included as a control. After incubation, the suspensions were centrifuged and diluted 1:10 in 50 mM HEPES buffer pH 7.5 supplemented with 1 μM zinc^2+ and VIM-2 (final concentration 1 nM).
# [7] = system: Klebsiella pneumoniae strain 50752501 harbouring NDM-1; experiment: In vivo infection study in neutropenic mice; design: species or system Klebsiella pneumoniae; host NMRI mice; conditions: for Score at sampling: sampling T = 5 h; for lower CFU levels compared to vehicle treatment: combination Example 26 (10-100 mg/kg) and meropenem 33 mg/kg
# Description: The purpose of this study was to investigate the synergy between a typical example of the present invention and a state of art carbapenem in a clinically relevant multiresistant Gram-negative bacterial strain harboring a metallo-β-lactamase in the treatment of live mice infected with the bacterial strain.
# The mice were rendered neutropenic by injecting 0.5 ml cyclophosphamide solution intraperitoneally 4 days (approximately 200 mg/kg) and 1 day (approximately 100 mg/kg) prior to inoculation.
# Fresh overnight colonies from a 5% Horse Blood Agar plate were suspended and diluted in sterile saline to approximately and 10^7 CFU/ml. Mice were inoculated intraperitoneally with 0.5 ml of the suspension. Approximately ½ hr prior to inoculation, mice were treated orally with 45 μl neurophen (20 mg ibuprofen/ml corresponding to approximately 30 mg/kg) as a pain relief.
# Mice were treated subcutaneously in the neck region with.
# Colony counts were determined from blood and peritoneal fluid at 1 and 5 hrs post inoculation. […] The mice were sacrificed immediately after blood sampling and a total of 2 ml sterile saline was injected i.p. and the abdomen gently massaged before it was opened and fluid sampled with a pipette. Each sample was then 10 fold serial diluted in saline and 20-μl spots, ranging from undiluted to a 10^6 dilution, were applied on agar plates in duplicates. […] All agar plates were incubated 18-22 hrs at 35° C. in ambient air.
# [8] = system: K. pneumoniae K66-45 (NDM-1); experiment: Microbroth dilution MIC of carbapenem with/without inhibitor; assay type: cell-based; conditions: K. pneumoniae NDM-1
# Description: • Plate bacterial strain(s) on appropriate media: • Gram-negative bacteria with ESBLs or carbapenemases: green agar plates with 100 mg/L ampicillin • Gram-negative bacteria without β-lactamases: green agar plates • Gram-positive bacteria (Staphylococci and Enterococci): blood agar plates • Incubate o.n. at 37° C.
# (Should be used within 15 min of preparation). • Dilute the 0.5 McFarland suspension 1:100 into MH broth. […] Plate 10 μl of the dilution on MH agar plates (×2). Incubate o.n. at 37° C., count the colonies and calculate the final CFU/ml inoculum in the plate by multiplying the average number of colonies with 10000 and divide by 2. The final inoculum should be between 3-7×10^5 CFU/ml. • Add 50 μl of the prepared bacterial suspension to each well in the microtiter plate except negative growth control.
# • Calculate the desired concentration-range and volume of the compounds/antibiotics in the assay. […] Dilute the stock solution in MH broth. Make subsequent 2-fold dilutions in MH broth of the desired concentrations if a concentration range is to be tested (remember the extra dilution factor in the assay plate). Always include extra volume for pipetting. Take into consideration stock solutions that are made in buffers that have an effect on bacterial growth (e.g. DMSO).
# rH glyoxylase II = rH glyoxylase II (Homo sapiens, UniProt Q16775); experiment: Interaction with zinc-containing human enzyme; assay type: biochemical; conditions: 62.5-500 μM, 30 min, 25° C., 0.4 ng/μL enzyme
# Description: The initial reaction velocity was measured at 405 nm. EDTA was included as a representative example of the APC chelator class described above.
# [9] = system: resistant clinical isolate of Klebsiella pneumoniae harboring NDM-1; experiment: Time-kill study with meropenem; assay type: cell-based; conditions: Example 26 + 4 mg/L meropenem, irrespective of Example 26 concentration; stays below LOD for 30 hrs
# Description: Mueller-Hinton broth (MHB) was warmed from fridge temperature cold. […] A sample of Example 26 was dissolved in DMSO.
# The 96-well plates were prepared using a multi-channel pipette, adding […] PBS to columns 2-9, or the required number of dilutions needed in the experiment. Each Inoculum was prepared by picking a single colony from the fresh plate that was disperged into 1 mL MHB, the loop was agitated to ensure all the colony comes off the loop. The tube was Vortex mixed, and a 100 μL aliquot was taken from the tube into 9.9 mL of MHB into the media bottle. […] The procedure was repeated for as many samples needed in the study. Aliquots of 5 mL inoculum were transferred to as many media bottles as needed, e.g. 4 mg/L MEM, 4 mg/L MEM+50 μM test substance, 4 mg/L MEM+100 μM test substance. Then […] aliquots were taken from each culture and added to Column 1 on the 96 well plate, e.g. culture 1: 50 μl into A1, […] into B1 etc. for time point 0 h. Then […] MEM was added into each bottle, followed by the required amount of test substance. The bottles were mixed gently to avoid formation of bubbles, and incubated in a secondary container at 37° C. at 180 rpm. Finally, serial dilutions were performed using multi-channel pipette taking 30 μL for column 1, adding to column 2, mixing well, repeating from column 2 to 3 with clean pipette tips.
# [10] = system: strains producing Klebsiella pneumoniae carbapenemases (KPC); experiment: Adjuvant activity with a carbapenem against KPC producers; assay type: cell-based; conditions: adjuvant together with a carbapenem
# VIM-2 = VIM-2 (Escherichia coli, UniProt Q5U7L7); assay type: biochemical
# Description: The eluent used was Chelex-treated HEPES 50 mM buffer, pH 7.5. […] In all experiments, 16 aliquots of 250 μL were taken from the PD-10 column runsout and enzyme activity was analysed. Enzyme activity was measured by adding Nitrocefin as a reporter substrate (final concentration of 50 μM).
# To investigate if more extreme time-dependent and concentration-dependent conditions could restore enzyme activity, aliquots having final concentrations of 30 nM column-treated enzyme and 1000 μM Zn^2+ on ice and at room temperature over prolonged time.
# [11] = system: meropenem-resistant E. coli; experiment: Checkerboard MIC assay of Example 26 and meropenem; assay type: cell-based; conditions: for some of the E. coli / K. pneumonia strains
# Description: A checkerboard MIC assay was using the broth dilution method according to CLSI guidelines. […] Dilutions to 4 mg/ml was performed by adding+4.75 ml sterile saline to 0.25 ml of the stock solution, and dilutions to 512 μg/ml was performed by adding 10.9 ml MH-broth to the 4 mg/ml solution. Inoculums of bacterial strains as described in Table 4 were prepared by suspending fresh overnight colonies from 5% horse blood agar were to a turbidity of 0.5 McFarland and further diluted to 1×10^6 CFU/ml in MH-broth. Aliquots of 50 μl of MH-broth were added to each well of polystyrene microtiter plates. […] The plates were incubated at 35° C., 16-20 hours.
structure (smiles),measurement,setting,value
"C[C@@H](N)C(=O)N[C@H](C)C(=O)NCCc1ccc(NC(=O)c2ccc(CN(Cc3ccccn3)Cc3ccccn3)nc2)cc1 [Example 195, N-(4-(2-((R)-2-((R)-2-aminopropanamido)propanamido)ethyl)phenyl)-6-((bis(pyridin-2-ylmethyl)amino)methyl)nicotinamide hydrochloride, reference compound]",RF - no of colonies,K. pneumoniae K66-45; MEM 2 mg/L,nc (n.c. = no colonies)
same,RF - no of colonies,K. pneumoniae K66-45; MEM 4 mg/L,nc (n.c. = no colonies)
same,RF - no of colonies,K. pneumoniae K66-45; MEM 8 mg/L,nc (n.c. = no colonies)
same,MIC meropenem + 25 mg/L Example 26 / Example 195,[1],0.06 µg/mL
same,solution stability (adjuvant activity in MIC studies after storage),[2],"a loss of activity was observed after 5 months storage, and after 8 months the activity was absent"
same,MIC meropenem + 25 mg/L Example 26 / Example 195,[3],0.25 µg/mL
same,MIC meropenem + 25 mg/L Example 26 / Example 195,[4],0.06 µg/mL
"CN(C[C@H](O)[C@@H](O)[C@H](O)[C@H](O)CO)C(=O)c1ccc(CN(Cc2ccccn2)Cc2ccccn2)nc1 [Example 26, 6-((bis(pyridin-2-ylmethyl)amino)methyl)-N-methyl-N-((2S,3R,4R,5R)-2,3,4,5,6-pentahydroxyhexyl)nicotinamide]",potentiates carbapenems with a factor,[5],32-256 times
same,effect of protein binding on inhibitory activity on VIM-2,[6],protein binding is not affecting the inhibitory activity
same,reduction of the CFU levels compared to vehicle treatment,"[7]; 10-100 mg/kg Example 26 alone, blood and peritoneal fluid",did not result in reduction of the CFU levels
same,Score at sampling,"[7]; Example 26 10 mg/kg s.c. + meropenem 33 mg/kg, mice 5-8",2
same,Score at sampling,"[7]; Example 26 10 mg/kg s.c. + vehicle, mice 17-20",2
same,Score at sampling,"[7]; Example 26 33 mg/kg s.c. + meropenem 33 mg/kg, mice 9-12",1
same,Score at sampling,"[7]; Example 26 33 mg/kg s.c. + vehicle, mice 21-24",1
same,Score at sampling,"[7]; Example 26 100 mg/kg s.c. + meropenem 33 mg/kg, mice 13-16",1
same,Score at sampling,"[7]; Example 26 100 mg/kg s.c. + vehicle, mice 25-28",1
same,lower CFU levels compared to vehicle treatment,[7]; blood,3.95-4.38 log10
same,lower CFU levels compared to vehicle treatment,[7]; peritoneal fluid,3.57-3.66 log10
same,solution stability (adjuvant activity in MIC studies after storage),[2],no loss of activity even after 8 months storage time
same,MIC meropenem + 25 mg/L Example 26 / Example 195,[3],0.25 µg/mL
same,MIC Value in K66-45 (MIC of carbapenem),"[8]; doripenem (DOR) + 25 mg/L Example 26, batches 1-3",0.25 µg/mL and 0.125 µg/mL
same,MIC Value in K66-45 (MIC of carbapenem),"[8]; meropenem (MEM) + 25 mg/L Example 26, batches 1-3",0.125 µg/mL and 0.25 µg/mL
same,interaction with rH glyoxylase II,rH glyoxylase II,does not interact with rH glyoxylase II
same,time after which CFU drops to below the limit of detection (LOD),[9],5 to 10 h
same,activity against KPC-producing strains,[10],does not show activity
same,enzyme activity restored by ZnSO4,VIM-2; 15 nM impaired VIM-2 from Example 207C spiked with 0-100 μM ZnSO4,40%
same,irreversibility of VIM-2 inhibition,"VIM-2; purified VIM-2, PD-10 column, EDTA at 100 μM",irreversibly inhibits VIM-2; also recorded: irreversibly inhibited
same,amplification of the effect of meropenem,[11],> 1000 times
